Assay results as given in patent publication US20240124524A1, “Agonist of Tacr2” (University of Copenhagen, priority 2019, published 2024).
Read-outs that look alike come from different tables or passages of the source.

How the values were obtained:
human brown adipose = settings: cited from earlier work
mouse Tacr2 = target: T1, mouse Tacr2 (Mus musculus, UniProt P30549); assay: IP3 assay in primary brown adipocytes transfected with Tacr2; type: cell-based; settings: 24 hours NKA treatment; Tacr2 over-expressing primary brown adipocytes; FIG. 3a
T1 construct: host or cells: primary brown adipocytes
T1 sequence (P30549 1-384): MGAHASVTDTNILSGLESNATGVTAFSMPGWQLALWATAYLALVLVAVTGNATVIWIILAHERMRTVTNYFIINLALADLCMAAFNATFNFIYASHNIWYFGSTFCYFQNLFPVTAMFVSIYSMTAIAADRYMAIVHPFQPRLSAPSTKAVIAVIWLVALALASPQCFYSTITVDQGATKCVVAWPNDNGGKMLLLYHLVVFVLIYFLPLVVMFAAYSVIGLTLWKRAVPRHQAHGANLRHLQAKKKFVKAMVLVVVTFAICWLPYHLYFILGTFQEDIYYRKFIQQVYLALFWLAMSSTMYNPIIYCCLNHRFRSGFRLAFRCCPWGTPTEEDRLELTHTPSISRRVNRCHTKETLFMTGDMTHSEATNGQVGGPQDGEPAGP
Description: Primary brown pre-adipocytes were isolated from intrascapular brown fat pads by collagenase type 1 (Worthington, NJ, USA) digestion on horizontal shaking water bath at 37° C. for 50 minutes with vortexing every 10 minutes. Collagenase was diluted in KRB with free fatty acid free BSA (Sigma-Aldrich, Denmark) in a ratio of 1:10. The enzymatic reaction was stopped by addition of growth media, and cell suspension was pelleted, resuspended in growth media before straining through a 40 μm nylon mesh (VWR, Denmark) to avoid tissue clumps. Pre-adipocytes were expanded in DMEM (Gibco, Denmark) supplemented with 10% fetal bovine serum (Invitrogen, Denmark) and 1% penicillin and streptomycin (Lonza, Denmark) until confluency. […]
Primary brown adipocytes were loaded with 5 μCi myo-[3H]inositol (Perkin Elmer, Denmark) in full maintenance media at the day after electroporation, and incubated overnight. […] After treatment, cells were extracted with 10 mM formic acid and cell membranes were captured using poly-L-lysine coated SPA beads (Perkin Elmer, Denmark), and analyzed on Top Counter (Perkin Elmer, Denmark).
(§1) Oxygen consumption was measured using the Seahorse XF-96 Flux Analyzer (Seahorse Bioscience, Denmark). […] All readings were performed over a two minutes period and mixing was performed for three minutes. […]

primary brown adipocytes = assay: Oxygen consumption rate, Seahorse XF-96 Flux Analyzer; type: cell-based; settings: 72 hours NKA treatment; primary brown adipocytes not transfected with Tacr2; FIG. 3b
Description: Primary brown pre-adipocytes were isolated from intrascapular brown fat pads by collagenase type 1 (Worthington, NJ, USA) digestion on horizontal shaking water bath at 37° C. for 50 minutes with vortexing every 10 minutes. Collagenase was diluted in KRB with free fatty acid free BSA (Sigma-Aldrich, Denmark) in a ratio of 1:10. The enzymatic reaction was stopped by addition of growth media, and cell suspension was pelleted, resuspended in growth media before straining through a 40 μm nylon mesh (VWR, Denmark) to avoid tissue clumps. Pre-adipocytes were expanded in DMEM (Gibco, Denmark) supplemented with 10% fetal bovine serum (Invitrogen, Denmark) and 1% penicillin and streptomycin (Lonza, Denmark) until confluency. The day after reach of confluency, primary brown pre-adipocytes were differentiated using a cocktail consisting of insulin (0.5 mg/mL), rosiglitazone (1 mM), dexamethasone (100 μM), IBMX (50 mM) and T3 (1 μM) for two days, thereafter cells were maintained in growth media containing insulin and T3 throughout the experimental period. Maintenance media was changed every second day. Cells were grown at 37° C. with 10% CO2.
as §1

mTacr2 [1] = target: T2, mTacr2 (Mus musculus, UniProt P30549); assay: IP3 assay in transfected HEK293 cells; type: cell-based
T2 construct: host or cells: HEK293
T2 sequence (P30549 1-384): T1 sequence (P30549 1-384)
Description: (§2) HEK293 cells were transiently transfected with plasmid (pcDNA3.1, Genscript, NJ, USA) encoding human or mouse Tacr1-3 using Lipofectamine 2000 (Thermo Fisher, Denmark). After six hours of transfection, cells were loaded with 5 μCi myo-[3H]inositol (Perkin Elmer, Denmark) in full maintenance and cultured overnight. […] After treatment, cells were extracted with 10 mM formic acid and cell membranes were captured using poly-L-lysine coated SPA beads (Perkin Elmer, Denmark), and analyzed on Top Counter (Perkin Elmer, Denmark).
(§3) Data was analyzed using GraphPad Prism 7 (GraphPad, CA, USA),using 4 parametric logistic curve fitting. The data analysis included calculation of the top value, the bottom value, the hill slope as well as the log EC50.

[2] = tested on: diet induced obese (DIO) mice; assay: Insulin tolerance test after Neurokinin A treatment; type: in vivo, mice (male C57Bl/6); settings: vs control mice
Description: (§4) Oxygen consumption was measured every 5 minutes using the PhenoMaster. Data is representative of all days and show means±SEM of n=6. (b) Weight was measured every day throughout the experimental period. […] (c) Insulin tolerance test was performed in 3h fasted mice the day after treatment, and mice received 1 UI per kg lean body mass insulin intraperitoneal. […] (d) The three major adipose tissues were harvested weighed upon termination of experiment.
Mice were fasted for 3 hours prior to intra peritoneal insulin tolerance test (IPITT). Insulin (Actrapid, Novo Nordisk, DK) was dosed at 1 IU per kg lean body mass measured prior to treatment. Blood glucose was determined using glucometer from Roche. Lower blood glucose levels indicate greater insulin sensitivity.

mTacr2 [3] = target: T2, mTacr2; assay: IP3 assay with 0.2% or 2% BSA (BSA binding); type: cell-based; settings: for EC50: printed as log EC50 with negative sign
Description: as §2, §3

[4] = tested on: diet induced obese (DIO) mice; assay: Neurokinin A treatment of diet induced obese mice; type: in vivo, mice (male C57Bl/6)
Description: as §4
All animal experiments were performed according to Danish animal legislation, with ad libitum access to food and water and 12 hour light-dark cycle. Male C57Bl/6 mice were purchased from Janvier (Denmark) at four weeks of age and acclimatized for one week prior to experimentation. For high fat diet studies, male C57Bl/6 mice were housed at room temperature and fed a 60% high fat diet (Research diets, D12492, Denmark) for 18 weeks. After being fed this diet, the mice were highly obese, typically having a body weight in the range of 42 to 45 g. These mice may also be referred to as diet induced obese (DIO) mice. Mice were randomized according to their weight and body composition measured by MRI scan (EchoMRI, TX, USA) before single-housing for at least one week prior treatment. Oxygen consumption and […] (RER) were measured using PhenoMaster (TSE-Systems, Germany). Food consumption was manually assessed every second day.
For treatment, NKA was diluted in Gelofusine® (B. Braun, DK) prior to subcutaneous injection. Mice were treated twice daily for 9 days.

Tacr2 [5] = target: T3, Tacr2 (Homo sapiens, UniProt P21452); settings: Sp Hs; cited from earlier work
T3 sequence (P21452 1-398): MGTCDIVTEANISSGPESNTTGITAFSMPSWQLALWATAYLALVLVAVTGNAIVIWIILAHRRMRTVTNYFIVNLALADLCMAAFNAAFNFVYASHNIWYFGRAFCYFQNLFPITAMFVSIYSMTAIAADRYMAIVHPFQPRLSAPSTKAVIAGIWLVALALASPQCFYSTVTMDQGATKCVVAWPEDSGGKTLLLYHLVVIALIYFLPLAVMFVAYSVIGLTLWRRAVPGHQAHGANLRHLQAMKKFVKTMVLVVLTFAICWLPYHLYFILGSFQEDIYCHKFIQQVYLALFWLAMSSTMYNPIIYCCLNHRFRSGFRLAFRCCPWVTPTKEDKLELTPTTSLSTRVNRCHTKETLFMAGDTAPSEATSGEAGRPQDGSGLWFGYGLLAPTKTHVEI

Tacr2 [6] = target: T4, Tacr2 (Rattus norvegicus, UniProt P16610); settings: Sp Rn; cited from earlier work
T4 sequence (P16610 1-390): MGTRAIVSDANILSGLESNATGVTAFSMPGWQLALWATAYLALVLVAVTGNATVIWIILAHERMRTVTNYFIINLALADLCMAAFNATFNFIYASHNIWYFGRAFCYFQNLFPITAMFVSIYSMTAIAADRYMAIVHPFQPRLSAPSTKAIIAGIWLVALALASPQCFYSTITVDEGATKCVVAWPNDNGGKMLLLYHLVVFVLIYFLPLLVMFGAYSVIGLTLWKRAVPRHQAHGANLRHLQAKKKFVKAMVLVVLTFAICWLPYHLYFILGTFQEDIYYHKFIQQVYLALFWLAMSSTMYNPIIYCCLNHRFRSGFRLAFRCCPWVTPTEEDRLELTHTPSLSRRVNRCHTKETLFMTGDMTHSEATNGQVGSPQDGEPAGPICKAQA

Tacr2 [7] = target: T4, Tacr2; settings: Sp Rn; cited from earlier work; remark: listed apart in the source
Tacr2 [8] = settings: Sp Cp; cited from earlier work

In the case of `Nc1nc(CC(=O)Nc2ccc(CCNC[C@H](O)c3ccccc3)cc2)cs1` [Mirabegron], the “activation of human brown adipose” value (human brown adipose; proof-of-concept studies) is listed as “activate human brown adipose” and the “blood pressure and heart rate” value (human brown adipose; side effects) is listed as “elevated blood pressure and heart rate”.

With `CSCC[C@H](NC(=O)[C@H](CC(C)C)NC(=O)CNC(=O)[C@@H](NC(=O)[C@H](Cc1ccccc1)NC(=O)[C@H](CO)NC(=O)[C@H](CC(=O)O)NC(=O)[C@@H](NC(=O)[C@H](CCCCN)NC(=O)[C@@H](N)Cc1cnc[nH]1)[C@@H](C)O)C(C)C)C(N)=O` [NKA, Neurokinin A] the IP3 levels (mouse Tacr2) was “increases IP3 levels”, the “oxygen consumption rate (OCR)” value (primary brown adipocytes) was “increases oxygen consumption rate (OCR)” and the EC50 (mTacr2 [1]) was 8.09 nM. The “blood glucose level after insulin treatment (ITT)” value ([2]; 3 h fasted, 1 IU insulin per kg lean body mass i.p., day after treatment, FIG. 4c) was “significant lower blood glucose level after insulin treatment”, the “insulin sensitivity (ITT)” value [2] was “higher insulin sensitivity” and the “return of blood glucose to basal levels after Cmin (ITT)” value [2] was “return to basal levels at a slower rate”. The EC50 (mTacr2 [3]; LogEC50, mTacr2, 0.2% BSA) was 3.54 nM, the EC50 (mTacr2 [3]; LogEC50, mTacr2, 2% BSA) was 12.3 nM and the BSA binding affinity (mTacr2 [3]; from Tacr2 activation at 0.2% vs 2% BSA) was “low BSA binding affinity”. For the same molecule, the Hill-Slope (mTacr2 [3]; mTacr2, 0.2% BSA) was 1.082, the Top (mTacr2 [3]; mTacr2, 0.2% BSA) was 1788 and the Bottom (mTacr2 [3]; mTacr2, 2% BSA) was 111.3. The Hill-Slope (mTacr2 [3]; mTacr2, 2% BSA) was 0.8378, the Top (mTacr2 [3]; mTacr2, 2% BSA) was 1719 and the metabolic parameters ([4]; 1 mg/kg NKA s.c. twice daily for 9 days) was “improved metabolic parameters”. For the same molecule, the “calorie burning (oxygen consumption)” value ([4]; 1 mg/kg NKA s.c. twice daily for 9 days, FIG. 4a) was “increased calorie burning”, the body weight ([4]; 1 mg/kg NKA s.c. twice daily for 9 days, FIG. 4b) was “significant reduction in body weight” and the “desensitization to NKA” value ([4]; 9 consecutive days of treatment, FIG. 4a) was “not accompanied by desensitization to NKA”. For the same molecule, the adipose tissue weight ([4]; tissues harvested upon termination, FIG. 4d) was “reduction of white adipose tissue and not brown fat”.

For `CSCC[C@H](NC(=O)[C@H](CC(C)C)NC(=O)CNC(=O)[C@@H](NC(=O)[C@H](Cc1ccccc1)NC(=O)[C@H](Cc1ccccc1)NC(=O)[C@H](CC(=O)O)NC(=O)[C@H](Cc1c[nH]cn1)NC(=O)[C@H](CCSC)NC(=O)[C@@H](N)CC(=O)O)C(C)C)C(N)=O` [NKB, neurokinin B], the Affinity (Tacr2 [5]) is listed as 5.0-7.7 pKi.

For “Neurokinin A (3-10) [GR64349, Neurokinin A (3-10) [Lys3, Gly8-(R)-γ-Lactam-Leu9]]”, the Affinity (Tacr2 [6]) is listed as 8.4 pEC50.

In the case of “[Lys5,Me-Leu9, Nle10]NKA-(4-10) [[Lys5,Me-Leu9,Nle10]NKA-(4-10), DKFVGXJ, X = Me-Leu; J = Nle]”, the Affinity (Tacr2 [7]) is listed as 8.8-9.4 pIC50.

In the case of [βAla8]neurokinin A-(4-10), the Affinity (Tacr2 [5]) is given as 6.0 pKd.

In the case of “hemokinin 1 (RSRTRQFYGLM; Hemokinin; UniProt Q99N14 56-66, looked up) [mammalian tachykinin (Mouse)]”, the Affinity (Tacr2 [5]) is listed as 6.3 pKi.

For “neuropeptide K (DADSSIEKQVALLKALYGHGQISHKRHKTDSFVGLM; Neuropeptide K; UniProt P20366 72-107, looked up) [natural agonist of Tacr2 (Human, Rat)]”, the Affinity (Tacr2 [8]) is given as 8.8 pEC50.

In the case of neuropeptide γ, the Affinity (Tacr2 [8]) is given as 9.5 pEC50.
